Patent publication US6921811B2, “Bioactive coating composition and methods” (BioSurface Engineering Technologies, Inc., priority 1998, dated 2005)

What was measured:
[1] = system: GS-9L cells (rat gliosarcoma); assay: Cell attachment, spreading and growth on coated low-attachment polystyrene wells; type: cell-based; details: 10^4 cells/well, serum-containing medium
From the text: (§1) Several cell types were used, including GS-9L cells (rat gliosarcoma), C3H10T1/2 (murine fibroblasts), Jurkat (human T cell), bovine aorta endothelial (BAE) cells and rat lymphocytes. GS-9L and C3H10T1/2 cells were maintained in log phase growth and detached from cultureware using Versene and collected by centrifugation. Jurkat cells grew as single cell suspensions and were collected by centrifugation. Rat lymphocytes were collected from heparinized blood by density gradient isolation over Ficoll-Hypaque® media. The collected cells were rinsed once by low speed centrifugation and suspended in either serum-free Dulbecco's Modified Eagles Medium (DMEM) containing pyruvate or RPMI 1640 containing 10% fetal bovine serum (FBS) supplemented with pyruvate. Aliquots of 10^4 cells in 100 μL were used in subsequent adhesion studies.
(§2) The cells were examined after plating using an inverted, phase-contrast microscope. At selected time points up to 4 days after initial seeding, the cells were rinsed three times in saline and fixed in buffered 10% formalin or 35% ethanol. In some cases, the cells were stained in situ with a 0.01 % aqueous solution of crystal violet. The amount of attachment was scored visually or quantitated. To establish the relative number of cells bound, crystal violet stained cells were dissolved in a solution of 70% ethanol containing 0.1% sodium dodecyl sulfate and 0.38 M Tris and the absorbance monitored at 610 nm, using the methods of Scragg and Ferreira (Anal Biochem 198:80-5, 1991) and Grando et al. (Skin Pharmacol 6:135-47, 1993).
(§3) The cells of Example 7 were added to untreated polystyrene wells, wells coated with silyl-heparin as in Example 4, with silyl-heparin-fibronectin as in Example 5, and with only fibronectin by incubation as described in Example 5. […] Cells were seeded at a concentration of 10^4 cells/well in serum-containing medium.
(§4) The cells grew to confluency by 4 days. […] No effort was made to grow the cells in a defined- or serum-low medium known to support growth.

[2] = system: bovine aorta endothelial (BAE) cells; assay: as above; type: cell-based; details: 10^4 cells/well, serum-containing medium
From the text: as §1, §2, §3, §4

[3] = system: Bovine aorta endothelial cells; assay: Growth of endothelial cells across a porous membrane from coated sutures, crystal violet; type: cell-based; details: coated suture separated from cells by 3 micron pore membrane; 4 days
Method: Six-well cluster plates were seeded with 5×10^4 bovine aorta endothelial cells. Cell culture insert membranes (25 mm diameter) with 3 micron pores in the bottom were placed in each well. Suture material was coated with silyl-heparin-bFGF or silyl-heparin. 10 cm of suture material, either coated or uncoated, was placed in each well and medium added sufficient to cover the suture (3 mL total). One set of inserts containing an uncoated suture was spiked with 50 ng of bFGF by adding the bFGF directly to the medium and was used as a positive control. The cells were allowed to grow for 4 days, and were then fixed and stained with crystal violet. Thereafter, the stain was eluted in aqueous methanol and 0.4% SDS and monitored at 595 nm. bFGF from the silyl-heparin-bFGF coated suture was able to transit the separating permeable 3 micron membrane and act regionally to stimulate the growth of endothelial cells at the end of 4 days, as shown in FIG. 6.

[4] = biological target: T1, antithrombin/factor Xa (Homo sapiens, UniProt P01008); assay: Loading efficiency of silyl-heparin complexes on materials, heparin-specific assays; type: biochemical; details: varied by substrate material (polystyrene, polycarbonate, polyurethane, stainless steel, titanium and others)
T1 construct: purchased Sigma Diagnostics Procedure No. CRS 106
T1 sequence (P01008 33-464): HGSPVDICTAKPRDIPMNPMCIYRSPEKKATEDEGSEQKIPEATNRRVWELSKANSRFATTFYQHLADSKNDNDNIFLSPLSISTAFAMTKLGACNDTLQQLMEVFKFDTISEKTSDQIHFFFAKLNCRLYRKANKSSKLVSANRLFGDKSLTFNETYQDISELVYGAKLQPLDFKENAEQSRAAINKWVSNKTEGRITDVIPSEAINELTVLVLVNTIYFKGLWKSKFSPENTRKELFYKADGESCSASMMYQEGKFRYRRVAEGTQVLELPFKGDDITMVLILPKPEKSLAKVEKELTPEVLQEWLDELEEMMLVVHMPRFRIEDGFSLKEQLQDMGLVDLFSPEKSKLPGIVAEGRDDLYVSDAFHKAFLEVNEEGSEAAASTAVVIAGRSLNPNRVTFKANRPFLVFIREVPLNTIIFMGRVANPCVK
From the text: Using contacting surfaces coated with silyl-heparin as in Example 4, and to which silyl-heparin-fibronectin was attached as in Example 5, the presence of both heparin and fibronectin was detected in analytical assays. Heparin was detected using a commercially-available an enzyme-linked assay kit (Sigma Chemical Co., St. Louis) that measured the heparin-induced inhibition of antithrombin/factor Xa as measured with a factor Xa specific chromogenic substrate. The enzyme-inhibition assay was performed in low-attachment 96 well plates following the directions of the manufacturer.
In related studies, heparin-specific assays and diemethylene blue dye uptake were used to establish that silyl-heparin complexes could be bound to a variety of materials including polystyrene, hydrogel-coated polystyrene, polycarbonate, polyurethane, poly caprolactone, polyvinylchloride, stainless steel and titanium. The loading efficiency of silyl-heparin complexes varied by substrate material, but was generally in the range of 10-40 mlU of heparin per cm^2.

[5] = system: Bovine aorta endothelial cells; assay: Capillary tube formation on coated low attachment wells; type: cell-based; details: 5×10^3 cells per well; DMEM containing 10% FBS; 4 days; phase contrast microscopy
Method: Low attachment 96 well plates were coated with saline, silyl-heparin complex, silyl-heparin-fibrinogen complex or silyl-heparin-bFGF complex. Bovine aorta endothelial cells (5×10^3 cells) were seeded into each well in DMEM containing 10% FBS. The cells were allowed to grow for 4 days and the cultures examined by phase contrast microscopy.

[6] = biological target: T2, bFGF (Homo sapiens, UniProt P09038); assay: bFGF binding to silyl-heparin coated polystyrene wells, immunoassay
T2 construct: purchased Sigma Chemical Co
T2 sequence (P09038 143-288, species assumed): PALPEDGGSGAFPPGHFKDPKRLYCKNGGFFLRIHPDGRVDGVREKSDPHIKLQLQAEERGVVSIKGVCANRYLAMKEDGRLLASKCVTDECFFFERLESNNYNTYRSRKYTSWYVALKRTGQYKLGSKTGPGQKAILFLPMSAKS
Method: Wells of 96 well polystyrene microtiter plates, with a well surface area of 0.32 cm^2, were coated with 30 μl of silyl heparin for 15 minutes at 37° C. After rinsing and air-drying, bFGF (Sigma Chemical Co.) in PBS/BSA was added in 150 μL aliquots in doubling dilutions. The plate was incubated at 37° C. for 1 hour and rinsed 5 times in PBS. An aliquot 150 μl of PBS/BSA containing 1:500 rabbit anti-FGF antibodies were added, incubated for 1 hour and rinsed. In some cases an irrelevant rabbit antibody was used at a similar concentration (rabbit anti-TGF-receptor II, Santa Cruz Biotechnology). An aliquot of PBS/BSA containing 1:500 HRPO-conjugated donkey anti-rabbit IgG added, and after incubation and rinsing ABTS-chromogen added. All antibody solutions were filtered through 0.2 micron filters prior to use. The absorbance was monitored at 405 nm. […] When anti-TGF-II (irrelevant antibody directed against the transforming growth factor receptor) was used instead of anti-FGF and at the same anti-dilutions, no bFGF was detected. When TGF-β, at a concentration of 40 ng was used as the growth factor molecule, no activity was detected with anti-bFGF antibodies.

[7] = system: Jurkat (human T cell); assay: Cell attachment on coated low-attachment polystyrene wells; type: cell-based; details: 10^4 cells/well, serum-containing medium
From the text: as §1
(§5) The cells were examined after plating using an inverted, phase-contrast microscope. […] The amount of attachment was scored visually or quantitated. To establish the relative number of cells bound, crystal violet stained cells were dissolved in a solution of 70% ethanol containing 0.1% sodium dodecyl sulfate and 0.38 M Tris and the absorbance monitored at 610 nm, using the methods of Scragg and Ferreira (Anal Biochem 198:80-5, 1991) and Grando et al. (Skin Pharmacol 6:135-47, 1993). […]

[8] = system: rat lymphocytes; assay: as above; type: cell-based; details: 10^4 cells/well, serum-containing medium
From the text: as §1, §5

[9] = system: C3H10T1/2 cells; assay: C3H10T1/2 cell attachment to a variety of coated substrates; type: cell-based, murine
Method: as §2
The general applicability of silyl-heparin-fibronectin complex was evaluated by applying this coating using the methods of Examples 4 and 5 to a variety of surfaces, including polystyrene, polylactide:polyglycolide, polycaprolactone, polyurethane and stainless steel. […] They did, however, bind moderately well to polylactide:polyglycolide and to polycaprolactone, and very well to stainless steel.

## benzyl-(1,2 dimethyl)disilyl heparin [silyl-heparin]
[1]
  CELL ATTACHMENT: did not attach
[2]
  CELL ATTACHMENT: did not attach
[3]
  growth (cell number) of endothelial cells: did not result in an increase in cell number
[4]
  loading efficiency of silyl-heparin complexes: 10-40 mlU of heparin per cm^2
[5]
  capillary tube formation: Tubes did not form
[6]; color development linear at high concentrations
  upper saturation limit of the silyl-heparin complex for bFGF: had not been reached
[6]; immunoassays
  binding of bFGF to silyl-heparin complexes on a contacting surface: readily bound
  binding of both fibrinogen and bFGF to heparin on a silyl-heparin complex: without displacement of either
[7]
  CELL ATTACHMENT: did not attach
[8]
  CELL ATTACHMENT: did not attach
[9]; cells cultured for up to 4 days
  C3H10T1/2 cell attachment on prolonged culture: no cell attachment was evident
[9]; regardless of the substrate
  effect of coating or treatment on C3H10T1/2 cell attachment: essentially eliminated cell attachment
[9]; surface: Stainless steel, determined by crystal violet staining
  C3H10T1/2 CELL ATTACHMENT: inhibition of cell attachment was noted
